Results: PubChem BioAssay (NCI)
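Abbreviation: GI50, concentration required for 50% inhibition of growth. TGI: concentration producing complete growth inhibition.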

Tests used:
Assay in all cases: growth of human tumour cells (NCI), 384-well format
CAKI-1 renal = tested on: CAKI-1 renal
T-47D breast = tested on: T-47D breast
UACC-257 melanoma = tested on: UACC-257 melanoma
UO-31 renal = tested on: UO-31 renal
SN12C renal = tested on: SN12C renal
SF-268 CNS = tested on: SF-268 CNS
BT-549 breast = tested on: BT-549 breast
HOP-92 NSCLC = tested on: HOP-92 NSCLC
MDA-MB-435 melanoma = tested on: MDA-MB-435 melanoma
MDA-MB-468 breast = tested on: MDA-MB-468 breast
NCI-H460 NSCLC = tested on: NCI-H460 NSCLC
UACC-62 melanoma = tested on: UACC-62 melanoma
SF-295 CNS = tested on: SF-295 CNS
A549 NSCLC = tested on: A549 NSCLC
OVCAR-8 ovarian = tested on: OVCAR-8 ovarian
786-0 renal = tested on: 786-0 renal
ACHN renal = tested on: ACHN renal
SK-MEL-5 melanoma = tested on: SK-MEL-5 melanoma
NCI-H522 lung = tested on: NCI-H522 lung
IGROV1 ovarian = tested on: IGROV1 ovarian
OVCAR-5 ovarian = tested on: OVCAR-5 ovarian
M14 melanoma = tested on: M14 melanoma
SK-MEL-28 melanoma = tested on: SK-MEL-28 melanoma
OVCAR-4 ovarian = tested on: OVCAR-4 ovarian
HOP-62 NSCLC = tested on: HOP-62 NSCLC
SF-539 CNS = tested on: SF-539 CNS
PC-3 prostate = tested on: PC-3 prostate
SR leukemia = tested on: SR leukemia

Compound: O=C(NOCCO)c1cc(CN2OCCCC2=O)c(F)c(F)c1Nc1ccc(I)cc1F
- GI50 (CAKI-1 renal): 0.059 µM
- TGI (CAKI-1 renal): 24.9 µM
- GI50 (T-47D breast): 21.5 µM
- TGI (T-47D breast): 65.2 µM
- GI50 (UACC-257 melanoma): < 0.01 µM
- TGI (UACC-257 melanoma): < 0.01 µM
- GI50 (UO-31 renal): 0.133 µM
- TGI (UO-31 renal): 2.13 µM
- GI50 (SN12C renal): 1.28 µM
- TGI (SN12C renal): > 100 µM
- GI50 (SF-268 CNS): 24.8 µM
- TGI (SF-268 CNS): > 100 µM
- GI50 (BT-549 breast): 6.65 µM
- TGI (BT-549 breast): 72.1 µM
- GI50 (HOP-92 NSCLC): 0.179 µM
- TGI (HOP-92 NSCLC): 1.72 µM
- GI50 (MDA-MB-435 melanoma): < 0.01 µM
- TGI (MDA-MB-435 melanoma): > 100 µM
- GI50 (MDA-MB-468 breast): 2.56 µM
- TGI (MDA-MB-468 breast): 13.8 µM
- GI50 (NCI-H460 NSCLC): 0.0236 µM
- TGI (NCI-H460 NSCLC): 51.9 µM
- GI50 (UACC-62 melanoma): < 0.01 µM
- TGI (UACC-62 melanoma): 0.0869 µM
- GI50 (SF-295 CNS): 11.2 µM
- TGI (SF-295 CNS): 41.1 µM
- GI50 (A549 NSCLC): 0.0535 µM
- TGI (A549 NSCLC): 10.9 µM
- GI50 (OVCAR-8 ovarian): 4.6 µM
- TGI (OVCAR-8 ovarian): 25.5 µM
- GI50 (786-0 renal): 11.6 µM
- TGI (786-0 renal): 42 µM
- GI50 (ACHN renal): 3.48 µM
- TGI (ACHN renal): > 100 µM
- GI50 (SK-MEL-5 melanoma): < 0.01 µM
- TGI (SK-MEL-5 melanoma): 17.5 µM
- GI50 (NCI-H522 lung): 5.97 µM
- TGI (NCI-H522 lung): 30.2 µM
- GI50 (IGROV1 ovarian): 0.0179 µM
- TGI (IGROV1 ovarian): 7.87 µM
- GI50 (OVCAR-5 ovarian): < 0.01 µM
- TGI (OVCAR-5 ovarian): > 100 µM
- GI50 (M14 melanoma): < 0.01 µM
- TGI (M14 melanoma): 0.0119 µM
- GI50 (SK-MEL-28 melanoma): < 0.01 µM
- TGI (SK-MEL-28 melanoma): 0.0115 µM
- GI50 (OVCAR-4 ovarian): 17.4 µM
- TGI (OVCAR-4 ovarian): > 100 µM
- GI50 (HOP-62 NSCLC): 0.0251 µM
- TGI (HOP-62 NSCLC): 64.6 µM
- GI50 (SF-539 CNS): 0.554 µM
- TGI (SF-539 CNS): 4.03 µM
- GI50 (PC-3 prostate): 34.4 µM
- TGI (PC-3 prostate): > 100 µM
- GI50 (SR leukemia): 2.12 µM
